Test results: PubChem BioAssay AID192 (DTP/NCI, 2004)
Where “and” joins values, the source holds several entries; their conditions need not be identical. Equal entries are not always repeated. Inconclusive results and toxic doses are left out.

System: BDF1 mice, B16 melanoma ip, median survival T/C
Assay: NCI In Vivo Anticancer Drug Screen. Data for tumor model B16 Melanoma (intraperitoneal) in B6D2F1 (BDF1) mice
Conditions: endpoint: median survival time, higher = longer survival
Method in brief: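 The ratio T/C compares compound-treated mice with vehicle-treated controls, using survival or tumor size as the endpoint in a transplantable tumor model.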

[1] = dose: 100.0 mg/kg/injection, schedule: Q01DX009 (ip), vehicle: saline with Tween-80
[2] = dose: 200.0 mg/kg/injection, schedule: Q01DX009 (ip), vehicle: saline with Tween-80
[3] = dose: 100.0 mg/kg/injection, schedule: Q01DX009 (ip), vehicle: saline
[4] = dose: 200.0 mg/kg/injection, schedule: Q01DX009 (ip), vehicle: saline
[5] = dose: 12.5 mg/kg/injection, schedule: Q01DX009 (ip), vehicle: saline
[6] = dose: 25.0 mg/kg/injection, schedule: Q01DX009 (ip), vehicle: saline
[7] = dose: 3.12 mg/kg/injection, schedule: Q01DX009 (ip), vehicle: Klucel (hydroxypropylcellulose) (HPC)
[8] = dose: 6.25 mg/kg/injection, schedule: Q01DX009 (ip), vehicle: Klucel (hydroxypropylcellulose) (HPC)
[9] = dose: 12.5 mg/kg/injection, schedule: Q01DX009 (ip), vehicle: Klucel (hydroxypropylcellulose) (HPC)
[10] = dose: 25.0 mg/kg/injection, schedule: Q01DX009 (ip), vehicle: Klucel (hydroxypropylcellulose) (HPC)
[11] = dose: 0.63 mg/kg/injection, schedule: Q01DX009 (ip), vehicle: saline with Tween-80
[12] = dose: 1.25 mg/kg/injection, schedule: Q01DX009 (ip), vehicle: saline with Tween-80
[13] = dose: 2.5 mg/kg/injection, schedule: Q01DX009 (ip), vehicle: saline with Tween-80
[14] = dose: 400.0 mg/kg/injection, schedule: Q01DX009 (ip), vehicle: saline with Tween-80
[15] = dose: 50.0 mg/kg/injection, schedule: Q01DX009 (ip), vehicle: Klucel (hydroxypropylcellulose) (HPC)
[16] = dose: 100.0 mg/kg/injection, schedule: Q01DX009 (ip), vehicle: Klucel (hydroxypropylcellulose) (HPC)
[17] = dose: 200.0 mg/kg/injection, schedule: Q01DX009 (ip), vehicle: Klucel (hydroxypropylcellulose) (HPC)
[18] = dose: 400.0 mg/kg/injection, schedule: Q01DX009 (ip), vehicle: Klucel (hydroxypropylcellulose) (HPC)

For `N=C(N)NC(=N)Nc1ccc(NC(=O)Nc2ccc(Nc3c4ccccc4nc4cc([N+](=O)[O-])ccc34)cc2)cc1`, the T/C (dose: 0.8 mg/kg/injection, schedule: Q01DX009 (ip), vehicle: water) was 98 % of control, the T/C (dose: 1.6 mg/kg/injection, schedule: Q01DX009 (ip), vehicle: water) was 100 % of control and the T/C (dose: 3.13 mg/kg/injection, schedule: Q01DX009 (ip), vehicle: water) was 102 % of control. For the same compound, the T/C (dose: 6.25 mg/kg/injection, schedule: Q01DX009 (ip), vehicle: water) was 104 % of control and the T/C (dose: 12.5 mg/kg/injection, schedule: Q01DX009 (ip), vehicle: water) was 94 % of control.

With `CC/C(C)=C(/C(=O)O)c1ccccc1` the T/C [1] was 110 % of control and the T/C [2] was 94 % of control.

With `O=C(O)c1ccc(O)c([N+](=O)[O-])c1` the T/C [3] was 115 % of control and the T/C [4] was 87 % of control.

`NC1CONC1=O` (centres undefined) was tested, and the T/C (dose: 6.25 mg/kg/injection, schedule: Q01DX009 (ip), vehicle: saline) was 109 % of control, the T/C [5] was 88 % of control and the T/C [6] was 109 % of control. For the same compound, the T/C (dose: 50.0 mg/kg/injection, schedule: Q01DX009 (ip), vehicle: saline) was 102 % of control, the T/C [3] was 105 % of control and the T/C [4] was 100 % of control. The T/C (dose: 400.0 mg/kg/injection, schedule: Q01DX009 (ip), vehicle: saline) was 91 % of control.

In the case of `Oc1ccc(/C=N/NC(=S)NN2CCOCC2)nc1`, the T/C [7] is reported as 104 % of control, the T/C [8] is reported as 103 % of control and the T/C [9] is reported as 104 % of control. For the same compound, the T/C [10] was 108 % of control.

`CCC1(O)CC(OC2CC(N(C)C)C(OC3CC4OC5CC(=O)C(C)OC5OC4C(C)O3)C(C)O2)c2c(cc3c(c2O)C(=O)c2c(O)ccc(O)c2C3=O)C1C(=O)OC` (centres undefined) was tested, and the T/C (dose: 0.75 mg/kg/injection, schedule: Q01DX009 (ip), vehicle: saline) was 88 % of control, the T/C (dose: 0.75 mg/kg/injection, schedule: Q04DX003 (ip), vehicle: saline) was 97 % of control and the T/C (dose: 1.5 mg/kg/injection, schedule: Q01DX009 (ip), vehicle: saline) was 105 % of control. The T/C (dose: 1.5 mg/kg/injection, schedule: Q04DX003 (ip), vehicle: saline) was 88 % of control and the T/C (dose: 3.0 mg/kg/injection, schedule: Q04DX003 (ip), vehicle: saline) was 97 % of control.

In the case of `CC(=O)C(O)N1C(=O)C=CC1=O` (centres undefined), the T/C (dose: 0.32 mg/kg/injection, schedule: Q01DX009 (ip), vehicle: saline with Tween-80) is reported as 100 % of control, the T/C [11] is reported as 108 % of control and the T/C [12] is reported as 111 % of control. For the same compound, the T/C [13] was 105 % of control and the T/C (dose: 5.0 mg/kg/injection, schedule: Q01DX009 (ip), vehicle: saline with Tween-80) was 105 % of control.

`O=C(O)C(/C=C/c1ccccc1)c1ccccc1` (centres undefined) was tested, and the T/C [1] was 95 % of control and the T/C [14] was 105 % of control.

`COc1cc2c(cc1OC)C1CCN3CCCC3N1CC2` (centres undefined) was tested, and the T/C [10] was 105 % of control, the T/C [15] was 105 % of control and the T/C [16] was 86 % of control and 100 % of control and 116 % of control.

For `CCCCCCCCCCCCCCCCS(=O)(=O)c1ccc(NN)cc1`, the T/C [15] was 97 % of control and the T/C [17] was 86 % of control and 88 % of control.

For `CCCCCCCCCCCCCCCC(=O)NNC(C)C`, the T/C [10] was 96 % of control, the T/C [15] was 90 % of control and the T/C [16] was 86 % of control.

In the case of `CCCCCCCC(O)CCCC` (centres undefined), the T/C [16] is reported as 92 % of control, the T/C [17] is reported as 98 % of control and the T/C [18] is reported as 86 % of control.

With `O=Cc1ccc(C=O)c(Cl)c1` the T/C [15] was 97 % of control, the T/C [16] was 109 % of control and the T/C [17] was 107 % of control. For the same compound, the T/C [18] was 104 % of control.

In the case of `COc1cc2c[n+](C)c3c4cc5c(cc4ccc3c2cc1OC)OCO5` (tested in a mixture with another compound), the T/C (dose: 0.78 mg/kg/injection, schedule: Q01DX009 (ip), vehicle: distilled water + Tween-80) is reported as 105 % of control, the T/C (dose: 1.56 mg/kg/injection, schedule: Q01DX009 (ip), vehicle: distilled water + Tween-80) is reported as 97 % of control and the T/C (dose: 3.13 mg/kg/injection, schedule: Q01DX009 (ip), vehicle: distilled water + Tween-80) is reported as 118 % of control. For the same compound, the T/C (dose: 5.0 mg/kg/injection, schedule: Q01DX009 (ip), vehicle: saline) was 116 % of control, the T/C [8] was 110 % of control and the T/C [9] was 124 % of control. The T/C [10] was 114 % of control, the T/C (dose: 40.0 mg/kg/injection, schedule: Q01DX009 (ip), vehicle: saline) was 159 % of control and the T/C [15] was 92 % of control. The T/C (dose: 80.0 mg/kg/injection, schedule: Q01DX009 (ip), vehicle: saline) was 98 % of control.

With `CCOc1ccc(OCC)c(NC(=O)c2ccccc2)c1` the T/C [1] was 114 % of control, the T/C [2] was 110 % of control and the T/C [14] was 110 % of control.

For `CC(=O)NC(CO)C(=O)c1ccc(S(=O)(=O)c2ccccc2)cc1` (centres undefined), the T/C [1] was 102 % of control and the T/C [2] was 93 % of control.

`Cc1cccc(C2NC(=O)c3ccccc3N2)c1` (centres undefined) was tested, and the T/C [16] was 109 % of control, the T/C [17] was 112 % of control and the T/C [18] was 115 % of control.

`ClCCN(CC#CCCCC#CCN(CCCl)CCCl)CCCl` was tested, and the T/C (dose: 1.56 mg/kg/injection, schedule: Q01DX009 (ip), vehicle: saline) was 111 % of control, the T/C (dose: 3.12 mg/kg/injection, schedule: Q01DX009 (ip), vehicle: saline) was 123 % of control and the T/C [5] was 173 % of control. The T/C [6] was 156 % of control.

With `CC(=O)[O][Pb]([O]C(C)=O)([c]1ccccc1)[c]1ccccc1` the T/C [8] was 98 % of control, the T/C [9] was 99 % of control and the T/C [10] was 103 % of control. The T/C [15] was 95 % of control.

With `C1CCC2[N-]CC3CCCCC3[N-]CC3CCCCC3[N-]CC3CCCCC3[N-]CC2C1.[Cu]` (centres undefined) the T/C (dose: 1.56 mg/kg/injection, schedule: Q01DX009 (ip), vehicle: Klucel (hydroxypropylcellulose) (HPC)) was 123 % of control and the T/C [7] was 156 % of control.

`COC(=O)Nc1nc2ccc(C(=O)c3ccccc3)cc2[nH]1` was tested, and the T/C (dose: 2.0 mg/kg/injection, schedule: Q04DX003 (ip), vehicle: saline with Tween-80) was 95 % of control, the T/C (dose: 4.0 mg/kg/injection, schedule: Q04DX003 (ip), vehicle: saline with Tween-80) was 106 % of control and the T/C (dose: 8.0 mg/kg/injection, schedule: Q04DX003 (ip), vehicle: saline with Tween-80) was 101 % of control. For the same compound, the T/C (dose: 15.0 mg/kg/injection, schedule: Q04DX003 (ip), vehicle: saline with Tween-80) was 114 % of control, the T/C (dose: 16.0 mg/kg/injection, schedule: Q04DX003 (ip), vehicle: saline with Tween-80) was 103 % of control and the T/C (dose: 200.0 mg/kg/injection, schedule: Q04DX003 (oral), vehicle: saline with Tween-80) was 115 % of control.

`O=S(=O)(F)c1cc(C[P+](c2ccccc2)(c2ccccc2)c2ccccc2)ccc1Cl` was tested, and the T/C (dose: 0.1 mg/kg/injection, schedule: Q01DX009 (ip), vehicle: saline with Tween-80) was 105 % of control, the T/C (dose: 0.1 mg/kg/injection, schedule: Q04DX003 (ip), vehicle: saline with Tween-80) was 112 % of control and the T/C (dose: 0.2 mg/kg/injection, schedule: Q01DX009 (ip), vehicle: saline with Tween-80) was 90 % of control. The T/C (dose: 0.2 mg/kg/injection, schedule: Q04DX003 (ip), vehicle: saline with Tween-80) was 110 % of control, the T/C (dose: 0.4 mg/kg/injection, schedule: Q01DX009 (ip), vehicle: saline with Tween-80) was 100 % of control and the T/C (dose: 0.4 mg/kg/injection, schedule: Q04DX003 (ip), vehicle: saline with Tween-80) was 110 % of control. The T/C (dose: 3.0 mg/kg/injection, schedule: Q04DX003 (ip), vehicle: saline with Tween-80) was 86 % of control and the T/C (dose: 12.5 mg/kg/injection, schedule: Q04DX003 (ip), vehicle: saline with Tween-80) was 86 % of control.

In the case of `COc1ccccc1N1C(=O)C=CC1=O`, the T/C [11] is reported as 93 % of control, the T/C [12] is reported as 89 % of control and the T/C [13] is reported as 87 % of control.

In the case of `CCNc1nc(Cl)nc(NC(C)C)n1`, the T/C (dose: 50.0 mg/kg/injection, schedule: Q01DX009 (ip), vehicle: saline with Tween-80) is reported as 100 % of control, the T/C [1] is reported as 102 % of control and the T/C [2] is reported as 104 % of control.

With `CCCCCCCC/C=C\CCCCCCCCN1CC(C(=O)[O][Pb]([CH2]C)([CH2]C)[CH2]C)CC1=O` (centres undefined) the T/C (dose: 0.75 mg/kg/injection, schedule: Q01DX009 (ip), vehicle: saline with Tween-80) was 107 % of control, the T/C (dose: 1.5 mg/kg/injection, schedule: Q01DX009 (ip), vehicle: saline with Tween-80) was 106 % of control and the T/C (dose: 3.0 mg/kg/injection, schedule: Q01DX009 (ip), vehicle: saline with Tween-80) was 102 % of control. For the same compound, the T/C (dose: 6.0 mg/kg/injection, schedule: Q01DX009 (ip), vehicle: saline with Tween-80) was 107 % of control.
